Counter-ions that a name gives are not always drawn. Like-named read-outs stand apart in the source and are kept apart here.
Experiments:
acetylcholinesterase = acetylcholinesterase (Homo sapiens, UniProt P22303); assay: biochemical; conditions: read-out: Acetylcholinesterase IC-50
butyrylcholinesterase = butyrylcholinesterase (Homo sapiens, UniProt P06276); assay: biochemical
[1] = read-out: Butyrylcholinesterase IC-50

Sequence of acetylcholinesterase (P22303 32-614, species assumed): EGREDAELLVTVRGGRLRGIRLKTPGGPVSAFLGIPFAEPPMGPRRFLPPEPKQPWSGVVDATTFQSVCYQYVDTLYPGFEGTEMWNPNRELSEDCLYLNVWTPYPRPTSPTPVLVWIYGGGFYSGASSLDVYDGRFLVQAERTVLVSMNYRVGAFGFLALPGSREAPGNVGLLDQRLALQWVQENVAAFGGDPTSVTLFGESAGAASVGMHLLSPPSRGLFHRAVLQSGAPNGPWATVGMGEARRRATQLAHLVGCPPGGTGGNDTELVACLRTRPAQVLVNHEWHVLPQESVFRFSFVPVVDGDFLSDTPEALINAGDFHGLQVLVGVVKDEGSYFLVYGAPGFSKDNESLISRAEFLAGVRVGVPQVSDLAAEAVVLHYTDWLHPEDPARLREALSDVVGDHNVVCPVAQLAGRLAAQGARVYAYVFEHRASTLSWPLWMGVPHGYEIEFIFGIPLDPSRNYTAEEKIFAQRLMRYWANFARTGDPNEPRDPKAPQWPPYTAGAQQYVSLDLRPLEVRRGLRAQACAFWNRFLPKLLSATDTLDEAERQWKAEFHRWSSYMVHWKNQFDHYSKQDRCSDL
Sequence of butyrylcholinesterase (P06276 29-602): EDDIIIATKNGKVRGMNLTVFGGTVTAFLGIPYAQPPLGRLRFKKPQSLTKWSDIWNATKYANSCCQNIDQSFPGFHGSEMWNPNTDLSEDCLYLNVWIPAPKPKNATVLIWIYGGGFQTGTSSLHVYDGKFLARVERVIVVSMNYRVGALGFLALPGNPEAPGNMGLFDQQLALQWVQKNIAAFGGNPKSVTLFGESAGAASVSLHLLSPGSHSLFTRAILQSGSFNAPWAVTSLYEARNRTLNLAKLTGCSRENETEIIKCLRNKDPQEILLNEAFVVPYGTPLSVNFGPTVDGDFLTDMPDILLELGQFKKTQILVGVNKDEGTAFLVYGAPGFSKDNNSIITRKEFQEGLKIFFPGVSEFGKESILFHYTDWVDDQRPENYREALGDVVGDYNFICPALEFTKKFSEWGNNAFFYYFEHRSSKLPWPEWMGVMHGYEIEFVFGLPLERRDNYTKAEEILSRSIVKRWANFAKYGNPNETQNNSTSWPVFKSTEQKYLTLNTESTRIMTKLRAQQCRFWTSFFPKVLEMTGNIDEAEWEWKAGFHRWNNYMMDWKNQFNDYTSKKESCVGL

COc1cc(Br)c2c3c1O[C@@H]1C[C@H](O)C=C[C@]31CCN(CCCN)C2 [Example 10, (4aR,6S,8aR)-11-(4-aminopropyl)-3-methoxy-5,6,9,10,11,12-hexahydro-4aH-[1]benzofuro[3a,3,2-et][2]benzazepin-6-ol, methane sulfonate]
IC50 (acetylcholinesterase): > 100 µM | IC50 (butyrylcholinesterase; [1]): > 100 µM

(4aS,6S,8aS)-1-bromo-6-hydroxy-3-methoxy-4a,5, 9,10-tetrahydro-6N-[1]benzofuro[3a,3,2-et][2]benzazepine-11(12H)-thiocarbonic acid allylamide [Example 2]
IC50 (butyrylcholinesterase; concentration at which 50% inhibition occurs, read-out: Butyrylcholinesterase IC-50): > 100 µM

COc1ccc2c3c1O[C@H]1C[C@@H](O)C=C[C@@]31CCN(C(=O)CCC(=O)O)C2 [Example 39, ((4aS,6R,8aS)-4a,5,9,10,11,12-hexahydro-6-hydroxy-3-methoxy-6H-benzofuro[3a,3,2-ef][2]benzazepine-11--yl)gamma-oxobutyric acid]
IC50 (acetylcholinesterase): > 100 µM | IC50 (butyrylcholinesterase; [1]): > 100 µM

COc1ccc2c3c1O[C@H]1C[C@@H](O)C=C[C@@]31CCN(Cc1ccc(Br)cc1)C2 [Example 43, (4aS,6R,8aS)-11-(4-brombenzyl)-4a,5,9,10,11,12-hexahydro-3-methoxy-6H-[1]benzofuro[3a,3,2-ef][2]benzazepin-6-ol]
IC50 (butyrylcholinesterase): 0.0006 µM

COc1ccc2c3c1O[C@@H]1C[C@H](O)C=C[C@]31CCN(CCCO)C2 [Example 29, (4aR,6S,8aR)-11-(3-hydroxypropyl)-3-methoxy-5,6,9,10,11,12-hexahydro-4aH-[1]benzofuro[3a,3,2-ef][2]benzazepin-6-ol]
IC50 (acetylcholinesterase): > 100 µM | IC50 (butyrylcholinesterase; [1]): > 100 µM

COc1cc(Br)c2c3c1O[C@@H]1C[C@H](O)C=C[C@]31CCN(CCCN1CCN(C)CC1)C2 [Example 8, (4aR,6R,8aR)-11-(3-(4-methylpiperazine)-1-yl-propyl)-3-methoxy-5,6,9,10,11,12-hexahydro-4aH-[1]benzofuro[3a,3,2-ef][2]benzazepin-6-oI, Trihydrochloride]
IC50 (acetylcholinesterase): > 100 µM

COc1ccc2c3c1O[C@H]1C[C@@H](O)C=C[C@@]31CCN(CCc1ccccc1Nc1c(Cl)cccc1Cl)C2 [Example 40, 1-((4aS,6R,8aS)-6-hydroxy-3-methoxy-5,6,9,10-tetrahydro-4aH-[1]benzofuro[3a,3,2-ef][2]benzazepine-11(12H)-yl)-2-[2-(2,6-dichloranilino)]-phenylethane]
IC50 (butyrylcholinesterase; [1]): 1.3 µM

COc1ccc2c3c1O[C@H]1C[C@H](O)C=C[C@@]31CCN(c1ncccn1)C2 [Example 16, (4aS,6S,8aS)-4a,5,9,10,11,12-hexahydro-3-methoxy-11-(2-pyrimidinyl)-6H-[1]benzofuro[3a,3,2-ef][2]benzazepin-6-ol]
IC50 (acetylcholinesterase): > 100 µM | IC50 (butyrylcholinesterase; [1]): > 100 µM

COc1ccc2c3c1O[C@@H]1C[C@@H](O)C=C[C@]31CC[N+](C)=C2 [Example 56, (4aR,6R,8aR)-6-hydroxy-3-methoxy-11-methyl-4a,5,9,10-tetrahydro-6H-benzofuro[3a,3,2-ef][2]benzazepineium bromide]
IC50 (butyrylcholinesterase): > 100 µM

COc1ccc2c3c1O[C@H]1C[C@@H](O)C=C[C@@]31CCN(CC(C)C(=O)c1ccc(C)cc1)C2 (stereo partly drawn) [Example 35, 3-[(4aS,6R,8aS)-6-hydroxy-3-methoxy-5,6,9,10-tetrahydro-4aH-[1]benzofuro[3a,3,2-ef][2]benzazepine-11(12H)-yl]-2-methyl-1(- 4-methylphenyl)propan-1-one, hydrochloride]
IC50 (butyrylcholinesterase; [1]): 0.4 µM

C=C(C)CN1CC[C@@]23C=C[C@@H](O)C[C@@H]2Oc2c(OC)ccc(c23)C1 [Example 17, (4aS,6S,SaS)-4a,5,9,10,11,12-hexahydro-3-methoxy-11-(2-methyl-prop-2-enyl)-6H-[1]benzofuro[3a,3,2-ef][2]benzazepin-6-ol]
IC50 (butyrylcholinesterase): > 100 µM

CCOC(=O)CCN1CC[C@@]23C=C[C@H](O)C[C@@H]2Oc2c(OC)ccc(c23)C1 [Example 47, Ethyl-3-((4aS,6R,8aS)-6-hydroxy-3-methoxy-5,6,9,10-tetrahydro-4aH-[1]benzofuro[3a,3,2-ef][2]benzazepine-11(12H)-yl)propanoate, hydrochloride]
IC50 (butyrylcholinesterase; [1]): 51 µM

COc1ccc2c3c1O[C@H]1C[C@@H](O)C=C[C@@]31CCN(CC(C)c1cccc(Oc3ccccc3)c1)C2 (stereo partly drawn) [Example 32, 2-((4aS,6R,8aS)-6-hydroxy-3-methoxy-5,6,9,10-tetrahydro-4aH-[1]benzofuro[3a,3,2-ef][2]benzazepine-11(12H)-yl)-1-methyl-1-(3-phenoxyphenyl)ethane hydrochloride]
IC50 (butyrylcholinesterase): 0.36 µM

COc1ccc2c3c1O[C@H]1C[C@@H](O)C=C[C@@]31CCN(C(=O)CN1CCOCC1)C2 [Example 48, 1-[(4aS,6R,8aS)-6-hydroxy-3-methoxy-5,6,9,10-tetrahydro-4aH-[1]benzofuro[3a,3,2-ef][2]benzazepine-11(12H)-yl]-2-(4-morpholinyl) ethan-1-one]
IC50 (butyrylcholinesterase; [1]): 3.8 µM

C=CCNC(=S)N1CC[C@@]23C=C[C@@H](O)C[C@@H]2Oc2c(OC)cc(Br)c(c23)C1 [Example 12, (4aS,6R,8aS)-1-bromo-6-hydroxy-3-methoxy-4a,5,9,10-tetrahydro-6H-[1]benzofuro[3a,3,2-ef][2]benzazepine-11(12H)-thiocarbonic acid allylamide]
IC50 (butyrylcholinesterase; [1]): 11 µM

COc1ccc2c3c1O[C@H]1C[C@@H](O)C=C[C@@]31CCN(C(=O)NC1CCCCC1)C2 [Example 53, (4aS,6R,8aS)-N11-cydohexyl-6-hydroxy-3-methoxy-5,6,9,10-tetrahydro-4aH-[1]benzofuro[3a, 3,2-ef][2]benzazepine-11(12H)-carbonic acid isopropylamide]
IC50 (butyrylcholinesterase; [1]): > 100 µM

COc1ccc2c3c1O[C@H]1C[C@@H](O)C=C[C@@]31CCN(C(=O)c1ccccc1)C2 [Example 33, (4aS,6R,8aS)-4a,5,9,10,11,12-hexahydro-3-methoxy-11-benzoyl-6H-[1]benzofuro[3a,3,2-ef][2]benzazepin-6-ol]
IC50 (butyrylcholinesterase; [1]): > 100 µM

CCOC(=O)CN1CC[C@@]23C=C[C@H](O)C[C@@H]2Oc2c(OC)ccc(c23)C1 [Example 44, Ethyl-2-((4aS,6R,8aS)-6-hydroxy-3-methoxy-5,6,9,10-tetrahydro-4aH-[1]benzofuro[3a,3,2-ef][2]benzazepine-11(12H)-yl)acetate]
IC50 (butyrylcholinesterase; [1]): 42 µM

COc1ccc2c3c1O[C@H]1C[C@H](O)C=C[C@@]31CCN(CC=C(C)C)C2 [Example 22, (4aS,6S,8aS)-4a,5,9,10,11,12-hexahydro-3-methoxy-11-(3-Methylbut-2-en-1-yl)-6H-[1]benzofuro[3a,3,2-ef][2]benzazepin-6-ol]
IC50 (butyrylcholinesterase; [1]): 20 µM

COc1ccc2c3c1O[C@H]1C[C@@H](O)C=C[C@@]31CCN(C(=O)CCl)C2 [Example 54, 1-[(4aS,6R,8aS)-6-hydroxy-3-methoxy-5,6,9,10-tetrahydro-4aH-[1]benzofuro[3a,3,2-ef][2]benzazepine-11(12H)-yl]-2-chloroethan-1-one]
IC50 (butyrylcholinesterase; [1]): > 100 µM

COc1ccc2c3c1O[C@H]1C[C@@H](O)C=C[C@@]31CCN(CCCN(C)C)C2 [Example 52, (4aS,6R,8aS)-11-((3-dimethylamino)propyl)-3-methoxy-5,6,9,10,11,12-hexahydro-4aH-[1]benzofuro[3a,3,2-ef][2]benzazepin-6-ol]
IC50 (butyrylcholinesterase; [1]): 2.1 µM

CCN(CC)CC(=O)N1CC[C@@]23C=C[C@H](O)C[C@@H]2Oc2c(OC)ccc(c23)C1 [Example 49, 1-((4aS,6R,8aS)-6-hydroxy-3-methoxy-5,6,9,10-tetrahydro-4aH-[1]benzofuro[3a,3,2-ef][2]benzazepine-11(12H)-yl]-2-(diethylamino) ethan-1-one]
IC50 (butyrylcholinesterase; [1]): 40 µM

COc1ccc2c3c1O[C@@H]1C[C@H](O)C=C[C@]31CC[N+](C)=C2 [Example 55, (4aR,6S,8aR)-6-hydroxy-3-methoxy-11-methyl-4a,5,9,10-tetrnhydro-6H-benzofuro[3a,3,2-eq][2]benzazepinium bromide]
IC50 (butyrylcholinesterase): > 100 µM

C=C(C)CN1CC[C@@]23C=C[C@H](O)C[C@@H]2Oc2c(OC)ccc(c23)C1 [Example 46, (4aS,6R,8aS)-4a,5,9,10,11,12-hexahydro-3-methoxy-11-(2-methyl-prop-2-enyl)-6H-[1]benzofuro[3a,3,2-ef][2]benzazepin-6-ol, hydrochloride]
IC50 (butyrylcholinesterase): 0.34 µM

COc1ccc2c3c1O[C@H]1C[C@@H](O)C=C[C@@]31CCN(C(=O)c1ccc(Br)cc1)C2 [Example 41, (4aS,6R,8aS)-4a,5,9,10,11,12-hexahydro-3-methoxy-11-(4-bromo-benzoyl)-6H-[1]benzofuro[3a,3,2-ef][2]benzazepin-6-ol]
IC50 (butyrylcholinesterase; [1]): 30 µM

COc1ccc2c3c1O[C@H]1C[C@H](O)C=C[C@@]31CCN(C(=O)c1ccccc1)C2 [Example 19, (4aS,6S,8aS)-4a,5,9,10,11,12-hexahydro-3-methoxy-11-benzoyl-6H-[1]benzafuro[3a,3,2-ef][2]benzazepin-6-ol]
IC50 (butyrylcholinesterase; [1]): > 100 µM

COc1ccc2c3c1O[C@H]1C[C@@H](O)C=C[C@@]31CCN(C(=O)CCN1CCCC1)C2 [Example 38, 1-[(4aS,6R,8aS)-6-hydroxy-3-methoxy-5,6,9,10-tetrahydro-4aH-[1]benzofuro[3a,3,2-ef][2]benzazepine-11(12H)-yl]-3-(1-pyrrolidyl) propan-1-one]
IC50 (butyrylcholinesterase; [1]): 2.4 µM

COc1ccc2c3c1O[C@H]1C[C@H](O)C=C[C@@]31CCN(CCN1CCOCC1)C2 [Example 15, (4aS,6S,8aS)-4a,5,9,10,11,12-hexahydro-11-(2-(morpholin-4-yl)-ethyl)-3-methoxy-6H-[1]benzofuro[3a,3,2-ef][2]benzazepin-6-ol]
IC50 (butyrylcholinesterase; [1]): > 100 µM

COc1cc(Br)c2c3c1O[C@@H]1C[C@H](O)C=C[C@]31CCN(C(=O)CN1CCN(C)CC1)C2 [Example 7, 1-[(4aR,6S,8aR)-1-bromo-6-hydroxy-3-methoxy-5,6,9,10-tetrahydro-4aH-[1]benzofuro[3a,3,2-ef][2]benzazepine-11(12H)-yl]-2-(4-methylpiperazinyl)ethan-1-one]
IC50 (butyrylcholinesterase; [1]): > 100 µM

COc1ccc2c3c1O[C@H]1C[C@@H](O)C=C[C@@]31CCN(C(=O)CN1CCCCC1)C2 [Example 36, 1-[(4aS,6R,8aS)-6-hydroxy-3-methoxy-5,6,9,10-tetrahydro-4aH-[1]benzofuro[3a,3,2-ef][2]benzazepine-11(12H)-yl]-2-(1-piperidyl)ethan-1-one]
IC50 (butyrylcholinesterase; [1]): > 100 µM

Source: patent US20070105837A1, “Novel derivatives of 4a,5,9,10,11,12-hexahydrobenzofuro[3a,3,2][2]-benzazepine, method for the production thereof and use thereof in the production of medicaments” (priority 2003, published 2007)
